Data on 33 molecules can be found in patent publication US7625897B2, “Non-nucleoside reverse transcriptase inhibitors” (Roche Palo Alto LLC, priority 2005, dated 2009).

One data set addresses HIV-1 RT (Human immunodeficiency virus type 1 group M subtype B, UniProt P03366). In words: HIV Reverse Transcriptase Assay: Inhibitor IC50 determination. To be noted: purified recombinant enzyme, poly(rA)/oligo(dT)16 template-primer, read-out: HIV-RT IC50 RT. The data set is classed as biochemical. How it is done:
HIV Reverse Transcriptase Assay: Inhibitor IC50 determination
HIV-1 RT assay was carried out in 96-well Millipore MultiScreen MADVNOB50 plates using purified recombinant enzyme and a poly(rA)/oligo(dT)16 template-primer in a total volume of 50 μL. The assay constituents were 50 mM Tris/HCl, 50 mM NaCl, 1 mM EDTA, 6 mM MgCl2, 5 μM dTTP, 0.15 μCi [^3H] dTTP, 5 μg/ml poly (rA) pre annealed to 2.5 μg/ml oligo (dT)16 and a range of inhibitor concentrations in a final concentration of 10% DMSO. Reactions were initiated by adding 4 nM HIV-1 RT and after incubation at 37° C. for 30 min, they were stopped by the addition of 50 μl ice cold 20% TCA and allowed to precipitate at 4° C. for 30 min. The precipitates were collected by applying vacuum to the plate and sequentially washing with 3×200 μl of 10% TCA and 2×200 μl 70% ethanol. Finally, the plates were dried and radioactivity counted in a Packard TopCounter after the addition of 25 μl scintillation fluid per well. IC50's were calculated by plotting % inhibition versus log10 inhibitor concentrations.

Like-named read-outs stand apart in the source and are kept apart here. Some results are limits rather than exact numbers.

With `Cc1ccc(CC2=NNC(=O)[C@@H](C)N2)c(F)c1Oc1cc(C#N)cc(C(F)F)c1` [Compound I-19, 3-Difluoromethyl-5-[2-fluoro-6-methyl-3-((R)-5-methyl-6-oxo-1,4,5,6-tetrahydro-[1,2,4]triazin-3-ylmethyl)-phenoxy]-benzonitrile], at HIV-1 RT (TABLE I), the IC50 (in general, the concentration that gives 50% inhibition) was determined as 0.018 µM.
In the case of `CC1OC(Cc2ccc(Cl)c(Oc3cc(Cl)cc(Br)c3)c2F)=NNC1=O` (stereo not drawn) [Compound I-6, 2-[3-(3-Bromo-5-chloro-phenoxy)-4-chloro-2-fluoro-benzyl]-6-methyl-4H-[1,3,4]oxadiazin-5-one], the IC50 at HIV-1 RT (TABLE I) stood at 0.0247 µM.
With `C[C@@H]1NC(Cc2ccc(Cl)c(Oc3cccc(Br)c3)c2)=NNC1=O` [Compound I-1, (S)-3-[3-(3-Bromo-phenoxy)-4-chloro-benzyl]-5-methyl-4,5-dihydro-1H-[1,2,4]triazin-6-one], the IC50 on HIV-1 RT (TABLE I) came to 4.52 µM.
Take `C[C@H]1NC(Cc2ccc(Br)c(Oc3cc(C#N)cc(C(F)F)c3)c2F)=NNC1=O` [Compound I-25, 3-[6-Bromo-2-fluoro-3-((R)-5-methyl-6-oxo-1,4,5,6-tetrahydro-[1,2,4]triazin-3-ylmethyl)-phenoxy]-5-difluoromethyl-benzonitrile]: the melting point (in general, the temperature, or range, at which the solid turns liquid) lay in the range of 231.5 to 233 °C. Further, on HIV-1 RT (TABLE I), the IC50 stood at 0.0117 µM.
Turning to `C[C@H]1CC(Cc2ccc(Cl)c(Oc3cccc(Br)c3)c2)=NNC1=O` [Compound I-20, (S)-6-[3-(3-Bromo-phenoxy)4-chloro-benzyl]-4-methyl-4,5-dihydro-2H-pyridazin-3-one], the IC50 on HIV-1 RT (TABLE I) is 0.0654 µM.
Same read-out and setting: to `O=C1CCC(Cc2ccc(Cl)c(Oc3ccccc3)c2)=NN1` [Compound I-24, 6-(4-Chloro-3-phenoxy-benzyl)-4,5-dihydro-2H-pyridazin-3-one] belongs 2.63 µM.
Molecule `CC1OC(Cc2ccc(Cl)c(Oc3cc(C#N)cc(C#N)c3)c2F)=NNC1=O` (stereo not drawn) [Compound I-9, 5-[6-chloro-2-fluoro-3-(6-methyl-5-oxo-5,6-dihydro-4H-[1,3,4]oxadiazin-2-ylmethyl)-phenoxy]-isophthalonitrile] displayed a melting point of 60.9 to 67.7 °C. Also, on HIV-1 RT (TABLE I), the IC50 was 0.0403 µM.
Molecule `N#Cc1cc(Cl)cc(Oc2c(Cl)ccc(CC3=NNC(=O)[C@@H](CO)N3)c2F)c1` [Compound I-30] registered a melting point of 112.5 to 114 °C. Also, the half-maximal inhibitory concentration (IC50) at HIV-1 RT (TABLE I) stood at 0.418 µM.
Turning to `C[C@H]1NC(Cc2ccc(Cl)c(Oc3cc(C#N)cc(C(F)F)c3)c2F)=NNC1=O` [Compound I-16, 3-[6-Chloro-2-fluoro-3-((R)-5-methyl-6-oxo-1,4,5,6-tetrahydro-[1,2,4]triazin-3-ylmethyl)-phenoxy]-5-difluoromethyl-benzonitrile], the IC50 at HIV-1 RT (TABLE I) turned out to be 0.0153 µM.
For the molecule `C[C@@H]1NC(Cc2ccc(Cl)c(Oc3cc(Cl)cc(C#N)c3)c2F)=NNC1=O` [Compound I-18, 3-Chloro-5-[6-chloro-2-fluoro-3-(5-methyl-6-oxo-1,4,5,6-tetrahydro-[1,2,4]triazin-3-ylmethyl)-phenoxy]-benzonitrile], the IC50 on HIV-1 RT (TABLE I) is 0.0119 µM.
As for `CC[C@H]1NC(Cc2ccc(Cl)c(Oc3cc(Cl)cc(C#N)c3)c2F)=NNC1=O` [Compound I-17, 3-Chloro-5-[6-chloro-3-((R)-5-ethyl-6-oxo-1,4,5,6-tetrahydro-[1,2,4]triazin-3-ylmethyl)-2-fluoro-phenoxy]-benzonitrile], on HIV-1 RT (TABLE I), the IC50 amounted to 0.013 µM.
For `N#Cc1cc(Cl)cc(Oc2c(Cl)ccc(CC3=NNC(=O)C(C(F)(F)F)N3)c2F)c1` (stereo not drawn) [Compound I-29], the IC50 on HIV-1 RT (TABLE I) worked out at 0.0269 µM.
On the same count and under the same terms, to `CCC1OC(Cc2ccc(Cl)c(Oc3cccc(Br)c3)c2)=NNC1=O` (stereo not drawn) [Compound I-12, 2-[3-(3-Bromo-phenoxy)-4-chloro-benzyl]-6-ethyl-4H-[1,3,4]oxadiazin-5-one] belongs 0.212 µM.
`O=C1NN=C(Cc2ccc(Cl)c(Oc3cc(Br)cc(Br)c3)c2F)NC12CC2` [Compound I-10, 5-[4-Chloro-3-(3,5-dibromo-phenoxy)-2-fluoro-benzyl]-4,6,7-triaza-spiro[2.5]oct-5-en-8-one] yielded a melting point of 90 to 95 °C. Besides, the IC50 on HIV-1 RT (TABLE I) was 0.066 µM.
With `CC1OC(Cc2ccc(Cl)c(Oc3cccc(Br)c3)c2)=NNC1=O` (stereo not drawn) [Compound I-4, 2-[3-(3-Bromo-phenoxy)-4-chloro-benzyl]-6-methyl-4H-[1,3,4]oxadiazin-5-one], on HIV-1 RT (TABLE I), the IC50 turned out to be 0.0515 µM.
For the molecule `CC1(C)OC(Cc2ccc(Cl)c(Oc3cccc(Br)c3)c2)=NNC1=O` [Compound I-11, 2-[3-(3-Bromo-phenoxy)4-chloro-benzyl]-6,6-dimethyl-4H-[1,3,4]oxadiazin-5-one], the IC50 on HIV-1 RT (TABLE I) is over 10 µM.
As for `CC1OC(Cc2ccc(Cl)c(Oc3cc(Cl)cc(C#N)c3)c2F)=NNC1=O` (stereo not drawn) [Compound I-8, 3-Chloro-5-[6-chloro-2-fluoro-3-(6-methyl-5-oxo-5,6-dihydro-4H-[1,3,4]oxadiazin-2-ylmethyl)-phenoxy]-benzonitrile], the IC50 on HIV-1 RT (TABLE I) is 0.0136 µM.
As to `C[C@@H]1NC(Cc2ccc(Cl)c(Oc3cc(Br)cc(Br)c3)c2F)=NNC1=O` [Compound I-2, (S)-3-[4-Chloro-3-(3,5-dibromo-phenoxy)-2-fluoro-benzyl]-5-methyl4,5-dihydro-1H-[1,2,4]triazin-6-one], the melting point was in the range of 88 to 91.5 °C. Also, at HIV-1 RT (TABLE I), the IC50 was determined as 0.165 µM.
Regarding `C[C@H]1CC(Cc2ccc(Cl)c(Oc3cccc(C#N)c3)c2)=NNC1=O` [Compound I-21, 3-[2-chloro-5-((S)-5-methyl-6-oxo-1,4,5,6-tetrahydro-pyridazin-3-ylmethyl)-phenoxy]-benzonitrile], at HIV-1 RT (TABLE I), the 50% inhibitory concentration (IC50) came to 0.0469 µM.
Regarding `Cc1nc(Cc2ccc(Cl)c(Oc3cc(Br)cc(C#N)c3)c2F)n[nH]c1=O` [II-6, 3-Bromo-5-[6-chloro-2-fluoro-3-(5-methyl-6-oxo-1,6-dihydro-[1,2,4]triazin-3-ylmethyl)-phenoxy]-benzonitrile], the IC50 on HIV-1 RT (TABLE II) is 0.0325 µM.
Regarding `Cc1nc(Cc2ccc(Cl)c(Oc3cccc(Br)c3)c2)n[nH]c1=O` [II-1], the half-maximal inhibitory concentration (IC50) on HIV-1 RT (TABLE II) stood at 0.331 µM.
On to `O=c1[nH]nc(Cc2ccc(Cl)c(Oc3cccc(Br)c3)c2)nc1-c1ccccc1` [II-3, 3-[3-(3-Bromo-phenoxy)4-chloro-benzyl]-5-phenyl-1H-[1,2,4]triazin-6-one], for which the melting point fell in the range of 59.8 to 63.9 °C. The IC50 at HIV-1 RT (TABLE II) is 0.346 µM.
Turning to `Cc1nc(Cc2ccc(Cl)c(Oc3cccc(C#N)c3)c2)n[nH]c1=O` [II-2, 3-[2-Chloro-5-(5-methyl-6-oxo-1,6-dihydro-[1,2,4]triazin-3-ylmethyl)-phenoxy]-benzonitrile], the melting point lay within 145.3 to 145.8 °C. Further, the IC50 at HIV-1 RT (TABLE II) was determined as 0.206 µM.
For `CC1OC(Cc2ccc(Cl)c(Oc3cc(Br)cc(Br)c3)c2F)=NNC1=O` (stereo not drawn) [Compound I-7, 2-[4-Chloro-3-(3,5-dibromo-phenoxy)-2-fluoro-benzyl]-6-methyl-4H-[1,3,4]oxadiazin-5-one], the melting point lay within 174.2 to 176.1 °C. Moreover, the IC50 on HIV-1 RT (TABLE I) was determined as 0.0245 µM.
In turn, `Cc1nc(Cc2ccc(Cl)c(Oc3cc(C#N)cc(C#N)c3)c2F)n[nH]c1=O` [II-5, 5-[6-chloro-2-fluoro-3-(5-methyl-6-oxo-1,6-dihydro-[1,2,4]triazin-3-ylmethyl)-phenoxy]-isophthalonitrile] showed a melting point of 194.7 to 197.4 °C. Besides, the IC50 on HIV-1 RT (TABLE II) is 0.432 µM.
Regarding `N#Cc1cc(Cl)cc(Oc2c(Cl)ccc(CC3=NNC(=O)CN3)c2F)c1` [Compound I-28], the melting point is 177.6 to 178 °C. Further, the IC50 on HIV-1 RT (TABLE I) stood at 0.143 µM.
As to `CC1(C)NC(Cc2ccc(Cl)c(Oc3cc(Cl)cc(C#N)c3)c2F)=NNC1=O` [Compound I-27], at HIV-1 RT (TABLE I), the IC50 amounted to 7.07 µM.
`CC1CC(Cc2ccc(Cl)c(Oc3cc(Cl)cc(C#N)c3)c2F)=NNC1=O` (stereo in doubt) [Compound I-22, 3-chloro-5-[6-chloro-2-fluoro-3-((S)-5-methyl-6-oxo-1,4,5,6-tetrahydro-pyridazin-3-ylmethyl)-phenoxy]-benzonitrile]: the melting point lay in the range of 156.5 to 157.2 °C. For the same molecule, the IC50 on HIV-1 RT (TABLE I) worked out at 0.0177 µM.
Consider `C[C@H]1NC(Cc2ccc(Cl)c(Oc3cc(Br)cc(Br)c3)c2F)=NNC1=O` [Compound I-3, (R)-3-[4-Chloro-3-(3,5-dibromo-phenoxy)-2-fluoro-benzyl]-5-methyl-4,5-dihydro-1H-[1,2,4]triazin-6-one], for which the melting point is 75.2 to 79.1 °C. The IC50 at HIV-1 RT (TABLE I) is 0.0107 µM.
Molecule `C[C@H]1NC(Cc2ccc(Br)c(Oc3cc(Cl)cc(C#N)c3)c2F)=NNC1=O` [Compound I-26] came in with a melting point of 178.2 to 179 °C. Besides, on HIV-1 RT (TABLE I), the IC50 turned out to be 0.0066 µM.
As for `CCC1OC(Cc2ccc(Cl)c(Oc3cccc(C#N)c3)c2)=NNC1=O` (stereo not drawn) [Compound I-14, 3-[2-Chloro-5-(6-ethyl-5-oxo-5,6-dihydro4H-[1,3,4]oxadiazin-2-ylmethyl)-phenoxy]-benzonitrile], on HIV-1 RT (TABLE I), the IC50 came out at 0.128 µM.
`Cc1nc(Cc2ccc(Cl)c(Oc3cc(Br)cc(Br)c3)c2F)n[nH]c1=O` [II-4, 3-[4-Chloro-3-(3,5-dibromo-phenoxy)-2-fluoro-benzyl]-5-methyl-1H-[1,2,4]triazin-6-one]: the melting point is 180.9 to 183.3 °C. Besides, the IC50 at HIV-1 RT (TABLE II) stood at 0.137 µM.
`CC1CC(Cc2ccc(Cl)c(Oc3cc(Cl)cc(Br)c3)c2F)=NNC1=O` (stereo in doubt) [Compound I-23, (S)-6-[3-(3-Bromo-5-chloro-phenoxy)-4-chloro-2-fluoro-benzyl]-4-methyl-4,5-dihydro-2H-pyridazin-3-one]: the melting point is 148.2 to 151 °C. The IC50 on HIV-1 RT (TABLE I) came out at 0.0143 µM.
